US4707477A, “Treating and preventing agent for ischemic cardiac disease and arrhythmia” (priority 1985, dated 1987)
Structures can show the parent of a compound that is named as a salt.

Assays:
[1] = Acute toxicity, LD50, ICR mouse; conditions: in vivo
[2] = system: Creatinie phosphokinase (CPK); assay: Creatine phosphokinase (CPK) after CaCl2, sodium polystyrenesulfonate and adrenaline in anesthetized dog (Experimental Example 2); assay type: in vivo; conditions: 0.5 mg/kg previously administered
Protocol: A dog was anesthetized with 50 mg/kg of sodium pentobarbital and a 0.5% CaCl2 solution was intravenously injected into the femoral vein of the animal at a rate of 1.33 ml/min/10 kg simultaneously with enemiasis of 25 g of sodium polystyrenesulfonate. After 30 min, 0.05 mg/kg of adrenaline was intravenously injected thereto.

[3] = system: dog; assay: Adrenaline-induced ventricular tachycardia/fibrillation after CaCl2 infusion in anesthetized dog (Experimental Example 1); assay type: in vivo; conditions: 0.5 mg/kg i.v. 12 min before adrenaline, 0.1, 0.2 and 0.3 mg adrenaline successively i.v., 2% CaCl2 infusion
Protocol: (§1) A dog was anesthetized with 50 mg/kg of sodium pentobarbital and a 2% CaC12 solution was intravenously injected into the femoral vein of the animal at a rate of 1.33 ml/min/10 kg. After 90 min, 0.1 mg, 0.2 mg and 0.3 mg of adrenaline were successively injected thereto intraveneously.

[4] = Solubility; assay type: physicochemical
[5] = system: striated structure; assay: Pathological examination of striated structure (Experimental Example 1); assay type: in vivo, dog; conditions: previously administered, 0.5 mg/kg i.v.
Protocol: as §1
From a pathological viewpoint, the striated structure of a subject was damaged in the case where no bunazosin hydrochloride was previously administered.

[6] = Acute toxicity, LD50, Wistar rat; conditions: in vivo

## CCCC(=O)N1CCCN(c2nc(N)c3cc(OC)c(OC)cc3n2)CC1 [bunazosin hydrochloride]
[1]; im, female, intramuscular
  LD50: 598 mg/kg
[1]; im, male, intramuscular
  LD50: 660 mg/kg
[1]; iv, female
  LD50: 80 mg/kg
[1]; iv, male
  LD50: 57 mg/kg
[1]; po, female
  LD50: 1250 mg/kg
[1]; po, male
  LD50: 1200 mg/kg
[1]; sc, female, subcutaneous
  LD50: 630 mg/kg
[1]; sc, male, subcutaneous
  LD50: 730 mg/kg
[2]; 60 min after injection of adrenaline
  CPK, difference from the control: no significant difference from the control
[2]; determined 60 min after injection of adrenaline (0.05 mg/kg i.v.)
  CPK: 85.1±15.6
[3]
  ventricular tachycardia or ventricular fibrillation: none among ten animals
[4]; absolute ethanol
  solubility: hardly soluble
[4]; chloroform
  solubility: almost insoluble
[4]; formic acid
  solubility: highly soluble
[4]; methanol
  solubility: not readily soluble
[4]; n-butanol
  solubility: hardly soluble
[4]; water
  solubility: not readily soluble
[5]
  change of striated structure (pathological viewpoint): no change was observed
[6]; im, female, intramuscular
  LD50: 152 mg/kg
[6]; im, male, intramuscular
  LD50: 205 mg/kg
[6]; iv, female
  LD50: 50 mg/kg
[6]; iv, male
  LD50: 51 to 64 mg/kg
[6]; po, female
  LD50: 1280 mg/kg
[6]; sc, female, subcutaneous
  LD50: 365 mg/kg
[6]; sc, male, subcutaneous
  LD50: 430 mg/kg
